Experimental data taken from patent publication US12648948B2, “Methods and compositions for treating cancer” (UNITED STATES GOVERNMENT AS REPRESENTED BY THE DEPARTMENT …, priority 2017, dated 2026).

Assays:
JNK = test: Western blot, JNK activation (phosphorylation of JNK) in glioma cells; format: cell-based, human; conditions: erlotinib; patient derived neurospheres and established GBM cell lines
Experimental: (§1) Western blot analysis was performed according to standard protocols.

Met = test: Western blot, Met activation in glioma cells; format: cell-based, human; conditions: erlotinib; established cell lines and patient derived neurospheres
Experimental: as §1

GAS6 = GAS6 expression (real time PCR, ELISA, Western blot); format: cell-based, human; conditions: erlotinib; patient derived neurospheres and established GBM cell lines
Experimental: Total RNA was isolated by TRIzol Reagent (Ambion). cDNA Reverse Transcription were performed by using High-Capacity cDNA Reverse Transcription Kit (Applied Biosystems). […] Each PCR was carried out in triplicate in a 20 μl volume using SYBR Green Master Mix (Applied Biosystems) for 15 minutes at 95° C. for initial denaturing, followed by 40 cycles of 95° C. for 15 s and 60° C. for 60 s in ViiA 7 Real-Time PCR System (Applied Biosystems). At least two independent experiments were done. Values for each gene were normalized to expression levels of GAPDH mRNA. The following primers were used: TNF, [NT] ID NO:3) and [NT] ID NO:4); […] GAPDH, [NT] ID NO:7) and [NT] ID NO:8). […] After 48 hours, supernatant and cell lysates were collected. Supernatant medium was concentrated 5-10-fold with Pierce protein concentrator (ThermoFisher). TNF protein concentration in supernatant, cell lysates and tissue extracts was determined by ELISA using a commercial TNF detection kit (ThermoFisher) according to manufacturer's instructions. Additionally, GAS6 protein concentration in supernatant was measured by ELISA kit (LifeSpan BioSciences).

TNF [1] = test: TNF mRNA (qRT-PCR) and TNF ELISA in glioma cells; format: cell-based, human
Experimental: Total RNA was isolated by TRIzol Reagent (Ambion). cDNA Reverse Transcription were performed by using High-Capacity cDNA Reverse Transcription Kit (Applied Biosystems). PCR primers were synthesized by IDT (Coralville, IA). Each PCR was carried out in triplicate in a 20 μl volume using SYBR Green Master Mix (Applied Biosystems) for 15 minutes at 95° C. for initial denaturing, followed by 40 cycles of 95° C. for 15 s and 60° C. for 60 s in ViiA 7 Real-Time PCR System (Applied Biosystems). At least two independent experiments were done. Values for each gene were normalized to expression levels of GAPDH mRNA.
2×10^6 cells were incubated in serum-free or EGF free medium containing different concentrations of erlotinib or DMSO. After 48 hours, supernatant and cell lysates were collected. Supernatant medium was concentrated 5-10-fold with Pierce protein concentrator (ThermoFisher). TNF protein concentration in supernatant, cell lysates and tissue extracts was determined by ELISA using a commercial TNF detection kit (ThermoFisher) according to manufacturer's instructions. Additionally, GAS6 protein concentration in supernatant was measured by ELISA kit (LifeSpan BioSciences).

[2] = tested on: GBM9 and GBM39 neurospheres; test: AlamarBlue cell viability assay, patient derived GBM neurospheres; format: cell-based, human; conditions: 72 h
Experimental: Cell viability assay was conducted using AlamarBlue cell viability assay kit (ThermoFisher) following manufacturer's protocol. Cells were cultured in Corning 96-well black plates with clear bottom (5000 cells/well). Drugs were added to cells for 72 hour following detection using POLARstar Omega Microplate Reader (excitation at 544 nm and emission at 590 nm) (BMG LABTECH, Germany).

GBM9 cells = test: Annexin-FACS assay and Caspase 3/7 activation; format: cell-based, human; conditions: Annexin V flow cytometry and Caspase 3/7 activation
Experimental: Annexin assay was performed by using Annexin—V-FLUOS Staining kit (Roche applied Science). Cells (1×10^6) were plated in 6 well plates and treated with drugs or vehicle alone. After 72 hours cells were trypsinized and washed 2 times with 1×PBS. The cells were incubated for 15 minutes at room temperature with Propidium Iodide and Annexin—V-FLUOS labeling solution in incubation buffer. Annexin and/or PI positive cells were detected by Flow Cytometry.
Caspase activity in the supernatant was measured using the Caspase-Glo 3/7 Assay (Promega, G8091) following manufacturer's instructions. Briefly, 72 hours after treatments, cells were washed by cold PBS and total cell lysates were prepared. 50 μg of total protein per sample was added per well of a 96 well plate and was incubated with 100 μl Caspase 3/7 reagent for 30 minutes. The luminescence of each sample was measured using a luminometer. All experiments included at least 3 replicates per group and were repeated 3 times.

TNF [3] = test: TNF ELISA on GBM9 xenograft tumor extracts; format: in vivo, mice
Experimental: (§2) To detect the in vivo levels of TNF, 1×10^6 GBM9 cells were injected into the right flanks of nude mice. When the subcutaneous tumor reached a volume of around 200 mm^3, the mice were treated with erlotinib to monitor the upregulation of TNF protein. The animals were dosed consecutively for 1, 2, 7 or 14 days and then sacrificed. The animals without treatment were considered as control (0-day treatment). Tumor tissues were rinsed in PBS and protein was extracted to analyze the TNF levels using ELISA and also used for western blot. To detect the protein expression in mice brain tumor tissues upon drug treatment, the same procedure was performed in orthotopic models. Additionally, with orthotopic models, mice were divided into four groups (control gavage group, erlotinib group, thalidomide group and erlotinib plus thalidomide, n=3). After 48 hours treatment tumors were harvested and subjected to Western blot and immunostaining.

JNK, Axl and ERK = test: Signal transduction in subcutaneous GBM9 tumors; format: in vivo, mice
Experimental: as §2

GBM9 subcutaneous tumors = test: Subcutaneous GBM9 xenograft tumor growth; format: in vivo, athymic nude mice; conditions: erlotinib 50 mg/kg oral gavage, SP600125 40 mg/kg i.p., thalidomide 150 mg/kg i.p., daily for 10 days
Experimental: 4 to 6 weeks old female athymic nude mice were purchased from Charles River Laboratories. The mice were housed in plastic cages (4-5 mice per cage) in a room with a 12 hour day-night cycle. 1×10^6 GBM9 cells were subcutaneously injected into the right flank of each nude mouse. […] The mice were randomly divided into control and treatment groups, mice were treated with drugs using the indicated doses. For combination treatment, both drugs were given concurrently for indicated periods. Tumor dimensions were measured by caliper every two days and tumor volumes calculated by the formula: volume=length×width×width/2. Mice were sacrificed when tumors reached over […] or 24 days from the first day of treatment.

[4] = mouse, in vivo
GBM9 intracranial tumors = test: Orthotopic (intracranial) GBM9 model, survival and bioluminescence imaging; conditions: erlotinib 50 mg/kg oral gavage and/or thalidomide 150 mg/kg i.p., 10 days; repeated with afatinib
Experimental: For the orthotropic model, 1×10^5 GBM9 cells expressing firefly luciferase were injected into the right corpus striatum of the brains of 6-8-week-old nude mice using a stereotactic frame. […] The mice were treated with erlotinib 50 mg/kg by oral gavage and/or intraperitoneal (i.p.) injection of 150 mg/kg thalidomide for 10 consecutive days. Bioluminescence imaging (BLI) was performed to record the growth of tumor every 5 days. Kaplan-Maier survival curves were calculated using GraphPad Prism 7.0 software. Mice were monitored and sacrificed when neurological signs appeared or after 40 days.

SMILES: C#Cc1cccc(Nc2ncnc3cc(OCCOC)c(OCCOC)cc23)c1 [erlotinib]
- JNK activation (phosphorylation of JNK) (JNK): activation of INK
- Met activation (Met): induces activation of Met in established cell lines, but only in one patient derived neurosphere 987
- GAS6 expression (GAS6): increase in GAS6
- TNF mRNA in GBM622 cells (TNF [1]; GBM622 neurospheres (very low EGFR), erlotinib 100 nM, 24 h): No increase in TNF is detected
- TNF mRNA levels (TNF [1]; erlotinib 100 nM (GBM9, GBM39) or 1 μM (U87EGFRwt, U87EGFRvIII)): significant and rapid increase in TNF mRNA levels
- TNF protein level (ELISA) (TNF [1]; supernatants of erlotinib treated cells): increase in TNF was confirmed at a protein level
- Cell viability, erlotinib alone at low concentration ([2]; erlotinib 100 nM): resistant to EGFR inhibition
- Cell viability, erlotinib alone at 1 μM ([2]; erlotinib 1 μM): significant cell death
- Mode of cell death, erlotinib combined with Axl, JNK, ERK or TNF inhibition (GBM9 cells): apoptotic cell death
- TNF level in subcutaneous mouse tumors (TNF [3]; GBM9 flank tumors, erlotinib 50 mg/kg): increase in TNF can be detected 1 day after administration of erlotinib
- Time to upregulation of TNF in GBM xenograft tumors (TNF [3]; erlotinib): about 24 hours
- Time at which JNK-ERK-Axl activation subsides in GBM xenograft tumors (JNK, Axl and ERK; erlotinib): about 2 weeks
- Erlotinib induced activation of JNK, Axl and ERK in mouse tumors (JNK, Axl and ERK; subcutaneous GBM9 tumors, erlotinib 50 mg/kg): peaking around 2-7 days and subsiding by 14 days
- Growth of subcutaneous tumors (GBM9 subcutaneous tumors): no significant effect on the growth of tumors
- Body weight of orthotopic models [4]: Body weight losses
- Survival of mice (GBM9 intracranial tumors): neither erlotinib nor thalidomide alone had a significant effect
